The source of these data is publication PMC4466525, “Design, Synthesis and Structure-Activity Relationship Studies of Novel Survivin Inhibitors with Potent Anti-Proliferative Properties” (PLoS ONE, 2015).

Structures are written as SMILES. Converted amounts (≈) assume the structure as drawn. Where two headings read alike, the source gives them in different places.

One data set deals with CYP3A. Put plainly: Cytochrome P450 inhibition, CYP3A. The format is in vitro ADME. As to conditions: human liver microsomes 0.1 mg/mL. Here is the method: (§1) All these experiments were performed by a contract research service company, Eurofins Panlabs Inc. (Study Number 100017964). Aqueous solubility (μM) was determined using the shake-flask method by comparing the peak area of the principal peak in a calibration standard (200 μM) containing organic solvent (methanol/water, 60/40, v/v) with the peak area of the corresponding peak in a buffer sample. Metabolic stability study was carried out by incubating compound 4g with human liver microsomes. Metabolic stability which is expressed as percent of the parent compound remaining, was calculated by comparing the peak area of the compound at the time point relative to that at time-0. The half-life (T1/2) was estimated from the slope of the initial linear range of the logarithmic curve of compound remaining (%) vs. time. In the cytochrome P450 inhibition study, human liver microsomes (0.1 mg/mL) were incubated with different substrates and compound 4g for 10 minutes. After the incubation, peak areas corresponding to the metabolite of each substrate were recorded. The percent of control activity was then calculated by comparing the peak area obtained in the presence of compound 4g to that obtained in the absence of compound 4g. Subsequently, the percent inhibition was calculated by subtracting the percent control activity from 100.
A general note: Microsomes from liver hold many membrane-bound enzymes, among them those of drug oxidation.

Data set [1] has as its system renal cancer cell line UO-31. Put plainly: NCI-60 five dose screening, UO-31. Particulars: Homo sapiens, renal cancer UO-31. The format is cell-based. Here is the method:
(§2) Four compounds including the parental compound UC-112 were submitted to National Cancer Institute for its NCI-60 cell line screening, initially tested at one concentration (10 μM), and subsequently selected for full five concentration testing following the standard protocols disclosed by NCI [34]. In brief, cells were plated into 96 well micro-titer plates 24 h prior to the treatment of compound solution for 48 h, then the cell viability was read out through absorbance of sulforhodamine B (SRB) staining.

A further data set addresses T1, CYP2B6 (Homo sapiens, UniProt P20813).
T1 construct: tissue Eurofins Panlabs Inc. (contract research service) Study Number 100017964; host or cells: human liver microsomes
Put plainly: Cytochrome P450 inhibition, CYP2B6. Type of data set: in vitro ADME. As to conditions: probe bupropion, substrate bupropion, human liver microsomes 0.1 mg/mL, read-out: % inhibition of control values, CYP2B6. Here is the method: as §1

The target in the next data set is T2, CYP1A (Homo sapiens, UniProt P05177).
T2 construct: tissue Eurofins Panlabs Inc. (contract research service) Study Number 100017964; host or cells: human liver microsomes
In words: Cytochrome P450 inhibition, CYP1A. Type of data set: in vitro ADME. Particulars: probe phenacetin, substrate phenacetin, human liver microsomes 0.1 mg/mL, read-out: % inhibition of control values, CYP1A. On the procedure:
as §1

The nature of data set [2]: Aqueous solubility, shake-flask method. Type of data set: physicochemical. As to conditions: PBS buffer, thermodynamic from solid, PBS pH 7.4, test concentration 200 μM. On the procedure: as §1
Data set [3] can be described thus: Metabolic stability in human liver microsomes. The format is in vitro ADME. Here is the method: as §1
A further data set has as its target T3, CYP2D6 (Homo sapiens, UniProt P10635).
T3 construct: tissue Eurofins Panlabs Inc. (contract research service) Study Number 100017964; host or cells: human liver microsomes
Put plainly: Cytochrome P450 inhibition, CYP2D6. The format is in vitro ADME. As to conditions: probe dextromethorphan, substrate dextromethorphan, human liver microsomes 0.1 mg/mL, read-out: % inhibition of control values, CYP2D6. Here is the method: as §1

A further data set relates to A375. Put plainly: Cell viability (MTS) anti-proliferative assay, A375. Type of data set: cell-based. Particulars: A-375, A375 human melanoma, 48 h treatment, n = 4, read-out: IC50 values ± SEM, A375. On the procedure: (§3) The anti-proliferative effect of UC-112 and its analogs were tested in human melanoma (A375, M14 and M14/LCC6MDR1) and human prostate cancer (PC-3) cell lines. All the cell lines were purchased from ATCC (American Type Culture Collection, Manassas, VA). The cancer cells were cultured using the supplemented cell culture medium as described before at 37°C in a humidified atmosphere containing 5% CO2. 5000 cells in logarithm growing phase were seeded overnight into each well of a 96-well plate. Then the cells were continuously incubated with sequential diluted compound solution (10 nM to 100 μM, 100 μl per well) in cell culture medium.

Another data set has as its target T4, CYP2C19 (Homo sapiens, UniProt P33261).
T4 construct: tissue Eurofins Panlabs Inc. (contract research service) Study Number 100017964; host or cells: human liver microsomes
Put plainly: Cytochrome P450 inhibition, CYP2C19. Type of data set: in vitro ADME. Particulars: probe omeprazole, substrate omeprazole, human liver microsomes 0.1 mg/mL, read-out: % inhibition of control values, CYP2C19. Here is the method: as §1

The next data set deals with caspase 3/7. In words: Caspase 3/7 functional assay (Caspase-Glo 3/7). Type of data set: cell-based, human. As to conditions: 1 μM, 24 h, A375 or PC-3 cells, N = 3. Here is the method:
The caspase 3/7 activity of cancer cells treated by DMSO control or compound of interest was analyzed using Glo Caspase-Glo 3/7 kit from Promega Corporation (Madison, WI) as per manufacturer’s instructions in similar protocol as described before. The readings of relative luminescence unit were normalized by the cell viability read from the same well determined by compatible CytoTox-Fluor Cytotoxicity assay kit (Promega, WI).

A further data set concerns the target T5, CYP2C8 (Homo sapiens, UniProt P10632).
T5 construct: tissue Eurofins Panlabs Inc. (contract research service) Study Number 100017964; host or cells: human liver microsomes
Put plainly: Cytochrome P450 inhibition, CYP2C8. Particulars: probe paclitaxel, substrate paclitaxel, human liver microsomes 0.1 mg/mL, read-out: % inhibition of control values, CYP2C8. The format is in vitro ADME. On the procedure: as §1

In data set [4] the test system is other IAPs (XIAP, cIAP1, cIAP2, livin). In words: Western blotting of other IAP levels. Type of data set: cell-based, human. As to conditions: 24 h, A375 and PC-3 cells. Here is the method: Lysates of A375 cells treated by the compound solution for 24 h were used to determine the change of IAP protein levels through western blotting. Primary rabbit antibodies against survivin, XIAP, cIAP1, cIAP2, livin and GAPDH were purchased from Cell Signaling Technology, Inc. (Danvers, MA) and used according to manufacture instructions as reported previously. Protein lane intensities were quantified by ImageJ software (US National Institutes of Health, Bethesda, MD).
On the technique in general: In western blotting, separated proteins are transferred to a membrane and probed.

A further data set relates to M14/LCC6MDR1. Put plainly: Cell viability (MTS) anti-proliferative assay, multidrug-resistant M14/LCC6MDR1. The format is cell-based, human. On the procedure: as §3
The next data set relates to PC-3. Put plainly: Cell viability (MTS) anti-proliferative assay, PC-3. The format is cell-based. Particulars: PC-3 human prostate cancer, 48 h treatment, n = 4, read-out: IC50 values ± SEM, PC-3. On the procedure: as §3
For data set [5], the system named is NCI/ADR-RES (ovarian cancer). In words: NCI-60 five dose screening, NCI/ADR-RES. The format is cell-based. As to conditions: Homo sapiens, NCI-60 five dose. Here is the method:
as §2

T1 sequence (P20813 whole entry): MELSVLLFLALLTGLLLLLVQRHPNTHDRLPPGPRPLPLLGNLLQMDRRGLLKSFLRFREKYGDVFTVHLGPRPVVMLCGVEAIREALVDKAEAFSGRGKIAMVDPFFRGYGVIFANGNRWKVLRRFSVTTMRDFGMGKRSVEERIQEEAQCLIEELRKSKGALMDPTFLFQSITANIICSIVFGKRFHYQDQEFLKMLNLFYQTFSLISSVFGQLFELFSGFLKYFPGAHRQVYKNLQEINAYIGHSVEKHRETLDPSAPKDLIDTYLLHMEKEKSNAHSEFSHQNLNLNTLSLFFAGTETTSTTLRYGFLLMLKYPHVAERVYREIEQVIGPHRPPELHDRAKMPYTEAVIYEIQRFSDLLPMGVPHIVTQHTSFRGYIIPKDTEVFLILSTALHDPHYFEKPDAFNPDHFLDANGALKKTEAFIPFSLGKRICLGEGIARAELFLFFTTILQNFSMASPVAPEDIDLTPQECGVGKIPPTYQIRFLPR
T3 sequence (P10635 whole entry): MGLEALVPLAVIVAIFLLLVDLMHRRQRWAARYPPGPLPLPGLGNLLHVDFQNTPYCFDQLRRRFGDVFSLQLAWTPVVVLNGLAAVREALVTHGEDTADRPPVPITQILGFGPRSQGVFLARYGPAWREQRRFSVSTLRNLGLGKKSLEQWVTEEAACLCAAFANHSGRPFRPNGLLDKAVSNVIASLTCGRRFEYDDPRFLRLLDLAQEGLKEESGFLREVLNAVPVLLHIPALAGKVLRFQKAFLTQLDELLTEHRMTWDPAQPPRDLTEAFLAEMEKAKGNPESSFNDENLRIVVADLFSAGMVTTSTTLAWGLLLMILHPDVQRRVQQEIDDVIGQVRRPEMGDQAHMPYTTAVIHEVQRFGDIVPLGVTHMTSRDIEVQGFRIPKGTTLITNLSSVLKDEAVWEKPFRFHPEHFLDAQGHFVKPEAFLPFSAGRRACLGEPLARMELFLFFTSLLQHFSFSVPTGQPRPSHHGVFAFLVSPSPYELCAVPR
T5 sequence (P10632 whole entry): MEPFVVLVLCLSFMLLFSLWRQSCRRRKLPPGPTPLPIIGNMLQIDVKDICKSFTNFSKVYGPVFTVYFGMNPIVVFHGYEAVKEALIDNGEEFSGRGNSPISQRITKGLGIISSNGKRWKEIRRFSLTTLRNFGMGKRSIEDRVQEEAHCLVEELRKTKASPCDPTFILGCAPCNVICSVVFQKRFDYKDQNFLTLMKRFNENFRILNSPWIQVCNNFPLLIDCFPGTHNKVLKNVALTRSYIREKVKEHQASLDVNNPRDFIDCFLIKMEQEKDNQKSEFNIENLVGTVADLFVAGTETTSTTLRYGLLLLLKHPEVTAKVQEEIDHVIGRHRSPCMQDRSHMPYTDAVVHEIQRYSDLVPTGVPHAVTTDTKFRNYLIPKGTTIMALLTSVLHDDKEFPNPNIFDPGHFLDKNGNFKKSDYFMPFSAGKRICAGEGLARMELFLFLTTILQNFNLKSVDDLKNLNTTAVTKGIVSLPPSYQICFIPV
T2 sequence (P05177 2-516 limits assumed): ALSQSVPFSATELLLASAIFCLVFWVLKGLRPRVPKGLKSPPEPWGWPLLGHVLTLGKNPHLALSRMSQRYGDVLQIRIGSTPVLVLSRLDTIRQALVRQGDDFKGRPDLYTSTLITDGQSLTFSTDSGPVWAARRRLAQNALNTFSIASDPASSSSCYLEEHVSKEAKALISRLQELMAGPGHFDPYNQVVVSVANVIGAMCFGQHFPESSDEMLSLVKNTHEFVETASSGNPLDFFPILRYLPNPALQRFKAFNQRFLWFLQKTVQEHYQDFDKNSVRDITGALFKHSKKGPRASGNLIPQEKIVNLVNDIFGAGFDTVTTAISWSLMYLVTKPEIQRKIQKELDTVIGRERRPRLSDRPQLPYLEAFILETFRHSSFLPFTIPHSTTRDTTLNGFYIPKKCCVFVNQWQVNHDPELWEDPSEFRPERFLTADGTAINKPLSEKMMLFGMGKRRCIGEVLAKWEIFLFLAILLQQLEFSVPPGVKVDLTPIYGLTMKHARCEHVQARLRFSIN
T4 sequence (P33261 whole entry): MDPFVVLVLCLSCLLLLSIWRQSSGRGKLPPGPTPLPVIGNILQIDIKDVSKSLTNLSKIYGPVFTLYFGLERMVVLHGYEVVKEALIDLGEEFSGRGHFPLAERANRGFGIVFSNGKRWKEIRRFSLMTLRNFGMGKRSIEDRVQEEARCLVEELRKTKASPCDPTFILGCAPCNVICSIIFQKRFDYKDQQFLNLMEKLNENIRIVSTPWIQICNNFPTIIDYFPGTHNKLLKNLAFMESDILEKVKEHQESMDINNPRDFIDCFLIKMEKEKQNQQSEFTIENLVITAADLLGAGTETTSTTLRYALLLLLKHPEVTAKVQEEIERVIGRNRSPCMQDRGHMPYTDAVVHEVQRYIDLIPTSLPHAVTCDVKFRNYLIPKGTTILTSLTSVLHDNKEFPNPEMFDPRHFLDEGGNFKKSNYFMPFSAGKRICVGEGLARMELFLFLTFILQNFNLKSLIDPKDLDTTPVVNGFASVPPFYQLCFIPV

In general, inhibition refers to the percentage by which the read-out fell short of the control. A word on the GI50: it is the concentration that inhibits growth by half. A high value points to lower sensitivity of the cells. In general, solubility refers to how much of the substance goes into solution per volume. A word on the microsomal CLint: it is the rate of metabolic loss divided by the concentration. A low value points to slow turnover. For orientation: half-life means the time in which the quantity being followed falls by half. High values mean slow loss, low ones fast loss. `CC(C)c1ccc(COCc2cc(CN3CCCC3)c(O)c3ncccc23)cc1` [4g, 5-(((4-isopropylbenzyl)oxy)methyl)-7-(pyrrolidin-1-ylmethyl)quinolin-8-ol]: the inhibition at 10 min in the data set on CYP3A (probe midazolam, substrate midazolam, read-out: % inhibition of control values, CYP3A (midazolam)) came out at 3%; in the data set with CYP3A (probe testosterone, substrate testosterone, read-out: % inhibition of control values, CYP3A (testosterone)), 29%; at CYP2B6, 21%; on CYP1A, 18%; at CYP2D6, 87%; at CYP2C19, 45%. Moreover, at CYP2C8, the inhibition at 10 min was determined as 21%. Moreover, the 50% growth inhibitory concentration (GI50) worked out at 52.5 nM in data set [1] and 50.1 nM in data set [5]. In addition, the solubility in data set [2] stood at 149 µM (≈ 58.1 µg/mL). The same molecule gave a microsomal CLint at 100 nM in data set [3] (human) of 137 µL/min/mg. In addition, the half-life at 100 nM in data set [3] (test concentration 100 nM) was found to be 51 min. The IC50 in the data set on A375 was determined as 900 ± 100 nM; in the data set with M14/LCC6MDR1 (Homo sapiens, 48 h, multidrug-resistant M14/LCC6MDR1 melanoma, 48 h treatment, MTS, n = 4, read-out: IC50 values ± SEM, M14/LCC6MDR1) it was 1800 ± 400 nM; with PC-3, 700 ± 100 nM. For the same molecule, the “Caspase 3/7 activation relative to DMSO control group” value with caspase 3/7 is given as “up to 4 folds”. In data set [4], the “Effect on levels of other IAPs” value is “minimally affected”. Further, in the data set on M14/LCC6MDR1 (IC50 on M14/LCC6MDR1 divided by IC50 on parental M14), the “Resistance Index” value is 2.3.
